Reference: ChEMBL document CHEMBL5241118, “4-Aminopyrazolopyrimidine scaffold and its deformation in the design of tyrosine and serine/threonine kinase inhibitors in medicinal chemistry” (RSC Med Chem, 2022)
Several values for one entry are separate records, joined by “and”; a condition that tells them apart may be missing. Identical values can stand only once.

How the values were obtained:
MV4-11 = test: Antitumor activity against human MV4-11 cells xenografted in athymic nu/nu mouse model assessed as tumor growth inhibition at 50 mg/kg administered a day measured after 14 days relative to control; format: functional; conditions: MV4-11, 336 h, time 14 day, read-out: TGI
[1] = biological target: Proto-oncogene tyrosine-protein kinase receptor Ret (Homo sapiens, UniProt P07949); test: Inhibition of recombinant GST-tagged RET (unknown origin) using EAIYAAPFKKK as substrate in the presence of ATP of 100 uM by western blot analysis
[2] = Inhibition of human recombinant 1R N-terminal His-tagged (919 to 1343 residues) expressed in baculovirus infected Sf21 measured after 20 mins by western blot analysis
[3] = biological target: Epidermal growth factor receptor (Homo sapiens, UniProt P00533, L858R); test: Inhibition of EGFR L858R mutant (unknown origin)
Epidermal growth factor receptor (Homo sapiens, UniProt P00533, L858R), sequence (P00533 25-1210 L858R limits assumed): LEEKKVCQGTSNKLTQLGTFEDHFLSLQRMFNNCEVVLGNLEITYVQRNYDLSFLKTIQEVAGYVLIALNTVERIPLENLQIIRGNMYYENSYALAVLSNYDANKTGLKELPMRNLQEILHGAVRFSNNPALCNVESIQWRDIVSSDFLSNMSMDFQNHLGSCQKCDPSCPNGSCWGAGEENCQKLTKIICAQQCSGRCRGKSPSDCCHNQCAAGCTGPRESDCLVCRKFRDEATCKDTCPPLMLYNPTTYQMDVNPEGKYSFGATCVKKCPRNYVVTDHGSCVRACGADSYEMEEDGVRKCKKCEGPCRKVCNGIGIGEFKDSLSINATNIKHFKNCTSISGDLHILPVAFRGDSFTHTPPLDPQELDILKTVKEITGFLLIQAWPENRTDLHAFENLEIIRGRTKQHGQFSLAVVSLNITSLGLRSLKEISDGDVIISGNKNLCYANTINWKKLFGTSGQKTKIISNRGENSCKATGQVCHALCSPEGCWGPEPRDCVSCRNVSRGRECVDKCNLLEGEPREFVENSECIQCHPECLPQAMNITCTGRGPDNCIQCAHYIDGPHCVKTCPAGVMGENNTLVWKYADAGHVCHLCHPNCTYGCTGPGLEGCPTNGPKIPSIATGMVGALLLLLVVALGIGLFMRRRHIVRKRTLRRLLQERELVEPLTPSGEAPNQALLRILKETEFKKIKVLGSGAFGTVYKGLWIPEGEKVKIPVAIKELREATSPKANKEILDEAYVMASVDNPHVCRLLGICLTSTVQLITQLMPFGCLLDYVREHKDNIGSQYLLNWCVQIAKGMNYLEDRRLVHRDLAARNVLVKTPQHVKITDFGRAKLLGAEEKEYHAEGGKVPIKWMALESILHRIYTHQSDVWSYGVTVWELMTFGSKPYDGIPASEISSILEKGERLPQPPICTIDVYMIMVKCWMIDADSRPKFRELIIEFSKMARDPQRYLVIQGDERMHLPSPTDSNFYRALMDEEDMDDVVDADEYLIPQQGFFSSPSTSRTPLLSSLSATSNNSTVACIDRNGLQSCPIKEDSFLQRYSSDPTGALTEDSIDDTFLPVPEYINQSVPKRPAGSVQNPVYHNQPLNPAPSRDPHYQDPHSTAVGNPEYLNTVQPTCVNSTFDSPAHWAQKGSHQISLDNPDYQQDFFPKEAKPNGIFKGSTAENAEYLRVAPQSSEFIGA

[4] = biological target: Epidermal growth factor receptor (Homo sapiens, UniProt P00533, L858R/T790M); test: Inhibition of EGFR L858R/T790M mutant (unknown origin)
[5] = biological target: T1, Epidermal growth factor receptor (Homo sapiens, UniProt P00533); test: Inhibition of wild type EGFR (unknown origin)
T1 sequence (P00533 whole entry): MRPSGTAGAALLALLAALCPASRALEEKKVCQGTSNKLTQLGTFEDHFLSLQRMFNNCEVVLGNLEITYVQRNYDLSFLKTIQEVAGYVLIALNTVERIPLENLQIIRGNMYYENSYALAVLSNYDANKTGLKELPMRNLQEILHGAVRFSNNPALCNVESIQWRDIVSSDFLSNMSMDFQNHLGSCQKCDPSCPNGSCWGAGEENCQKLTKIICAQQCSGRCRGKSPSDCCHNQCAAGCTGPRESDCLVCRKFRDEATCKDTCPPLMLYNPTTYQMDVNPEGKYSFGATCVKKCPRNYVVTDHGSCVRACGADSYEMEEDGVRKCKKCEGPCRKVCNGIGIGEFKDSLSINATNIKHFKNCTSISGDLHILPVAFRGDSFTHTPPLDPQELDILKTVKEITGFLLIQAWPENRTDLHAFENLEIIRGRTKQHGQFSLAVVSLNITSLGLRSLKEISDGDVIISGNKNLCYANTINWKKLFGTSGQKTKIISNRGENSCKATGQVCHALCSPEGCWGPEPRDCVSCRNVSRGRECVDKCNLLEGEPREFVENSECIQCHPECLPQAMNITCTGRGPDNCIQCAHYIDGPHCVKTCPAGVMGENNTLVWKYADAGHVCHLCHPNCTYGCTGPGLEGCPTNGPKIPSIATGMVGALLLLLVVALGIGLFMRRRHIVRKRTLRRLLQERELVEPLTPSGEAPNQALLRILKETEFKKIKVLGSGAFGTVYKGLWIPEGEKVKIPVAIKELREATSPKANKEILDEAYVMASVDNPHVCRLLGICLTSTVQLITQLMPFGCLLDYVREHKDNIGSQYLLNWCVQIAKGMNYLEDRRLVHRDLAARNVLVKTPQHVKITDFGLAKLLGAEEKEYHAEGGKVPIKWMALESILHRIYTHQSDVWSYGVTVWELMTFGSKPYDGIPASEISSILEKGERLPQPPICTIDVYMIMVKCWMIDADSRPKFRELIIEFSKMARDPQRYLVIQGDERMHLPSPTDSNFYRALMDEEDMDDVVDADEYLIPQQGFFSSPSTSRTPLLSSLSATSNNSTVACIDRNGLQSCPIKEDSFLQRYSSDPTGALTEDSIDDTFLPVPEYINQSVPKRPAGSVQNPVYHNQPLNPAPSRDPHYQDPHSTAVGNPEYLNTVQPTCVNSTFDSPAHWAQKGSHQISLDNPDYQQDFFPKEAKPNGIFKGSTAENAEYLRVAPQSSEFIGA

[6] = biological target: Tyrosine-protein kinase BTK (Homo sapiens, UniProt Q06187); test: Inhibition of BTK (unknown origin) in the presence of ATP measured after 40 mins by radiometry analysis
in vitro [7] = conditions: human, liver microsomes
Description: Clearance in human liver microsomes

JeKo-1 = test: Antiproliferative activity against human JeKo-1 cells assessed as reduction cell viability measured after 24 hrs by Cell Titer-Glo Luminescent Cell Viability Assay; format: functional, cell-based; conditions: JeKo-1, 24 h
Maver1 = test: Antiproliferative activity against human MAVER-1 cells assessed as reduction cell viability measured after 24 hrs by Cell Titer-Glo Luminescent Cell Viability Assay; format: functional, cell-based; conditions: Maver1, 24 h
Z-138 = test: Antiproliferative activity against human Z138 cells assessed as reduction cell viability measured after 24 hrs by Cell Titer-Glo Luminescent Cell Viability Assay; format: functional, cell-based; conditions: Z-138, 24 h
in vitro [8] = conditions: human, liver microsomes; remark: listed apart in the source
Description: Half life in human liver microsomes

[9] = Antiproliferative activity against human MINO cells assessed as reduction cell viability measured after 24 hrs by Cell Titer-Glo Luminescent Cell Viability Assay; format: functional, cell-based
[10] = biological target: Proto-oncogene tyrosine-protein kinase Src (Homo sapiens, UniProt P12931); test: Binding affinity to c-Src (unknown origin) assessed as inhibition constant
[11] = biological target: Tyrosine-protein kinase Lck (Homo sapiens, UniProt P06239); test: Binding affinity to LCK (unknown origin) assessed as dissociation constant
Tyrosine-protein kinase Lck, sequence (P06239 whole entry): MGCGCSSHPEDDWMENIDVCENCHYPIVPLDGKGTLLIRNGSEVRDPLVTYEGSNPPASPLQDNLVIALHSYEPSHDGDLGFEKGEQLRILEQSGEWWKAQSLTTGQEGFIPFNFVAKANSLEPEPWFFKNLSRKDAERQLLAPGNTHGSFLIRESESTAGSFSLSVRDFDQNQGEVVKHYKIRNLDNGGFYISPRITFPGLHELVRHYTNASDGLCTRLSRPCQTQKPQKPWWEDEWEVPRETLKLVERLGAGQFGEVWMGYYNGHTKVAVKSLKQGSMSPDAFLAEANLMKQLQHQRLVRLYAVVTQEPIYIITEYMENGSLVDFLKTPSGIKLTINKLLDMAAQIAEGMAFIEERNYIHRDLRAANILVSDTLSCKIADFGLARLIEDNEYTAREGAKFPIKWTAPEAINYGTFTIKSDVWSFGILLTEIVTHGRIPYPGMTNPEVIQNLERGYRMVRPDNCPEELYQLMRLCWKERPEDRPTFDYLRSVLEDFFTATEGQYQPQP

[12] = biological target: Tyrosine-protein kinase Fgr (Homo sapiens, UniProt P09769); test: Binding affinity to FGR (unknown origin) assessed as dissociation constant
Tyrosine-protein kinase Fgr, sequence (P09769 whole entry): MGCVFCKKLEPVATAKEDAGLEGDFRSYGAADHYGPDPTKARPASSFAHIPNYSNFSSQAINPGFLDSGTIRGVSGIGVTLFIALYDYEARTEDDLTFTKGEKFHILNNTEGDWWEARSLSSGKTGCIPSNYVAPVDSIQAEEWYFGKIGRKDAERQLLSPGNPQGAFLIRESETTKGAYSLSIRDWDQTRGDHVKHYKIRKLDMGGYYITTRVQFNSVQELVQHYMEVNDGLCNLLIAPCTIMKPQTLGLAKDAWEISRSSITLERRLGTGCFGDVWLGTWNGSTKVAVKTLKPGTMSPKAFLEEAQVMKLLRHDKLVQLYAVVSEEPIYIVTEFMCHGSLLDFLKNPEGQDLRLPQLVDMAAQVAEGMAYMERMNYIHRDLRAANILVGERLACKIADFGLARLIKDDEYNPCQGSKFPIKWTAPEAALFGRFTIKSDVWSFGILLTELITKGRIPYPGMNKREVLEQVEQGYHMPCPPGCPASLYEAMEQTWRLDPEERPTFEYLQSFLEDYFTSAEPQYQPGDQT

[13] = biological target: Tyrosine-protein kinase Yes (Homo sapiens, UniProt P07947); test: Binding affinity to YES (unknown origin) assessed as dissociation constant
[14] = Half life in CD1 mouse at 3 mg/kg, ip by LC-MS/MS analysis; format: ADME, organism-based; conditions: in vivo
NCI-H1581 [15] = test: animal or person; conditions: Mus musculus, BALB/c, NCI-H1581, 480 h, read-out: TGI
Description: Antitumor activity against human NCI-H1581 cells xenografted in BALB/c mouse assessed as tumor growth inhibition at 10 mg/kg, ip administered once daily for 20 days measured after 32 days by LC_MS/MS analysis relative to control

[16] = AUC (0 to t) in CD1 mouse at 1 mg/kg, iv by LC-MS/MS analysis; format: ADME, organism-based; parameters: dose 1 mg/kg, route iv; conditions: in vivo
[17] = Half life in CD1 mouse at 1 mg/kg, iv by LC-MS/MS analysis; format: ADME, organism-based; conditions: in vivo
[18] = AUC (0 to t) in CD1 mouse at 3 mg/kg, ip by LC-MS/MS analysis; format: ADME, organism-based; parameters: dose 3 mg/kg, route ip; conditions: in vivo
BaF3 = test: cells; conditions: Mus musculus, BaF3, 72 h
Description: Antiproliferative activity against mouse BaF3/TEL-FGFR1 cells measured after 72 hrs by CCK8 assay

NCI-H1581 [19] = test: animal or person; conditions: Mus musculus, BALB/c, NCI-H1581, 480 h, read-out: TGI; remark: listed apart in the source
Description: Antitumor activity against human NCI-H1581 cells xenografted in BALB/c mouse assessed as tumor growth inhibition at 50 mg/kg, ip administered once daily for 20 days measured after 32 days by LC_MS/MS analysis relative to control

[20] = biological target: Fibroblast growth factor receptor 4 (Homo sapiens, UniProt P22455); test: Inhibition of human recombinant FGFR4
Fibroblast growth factor receptor 4, sequence (P22455 whole entry): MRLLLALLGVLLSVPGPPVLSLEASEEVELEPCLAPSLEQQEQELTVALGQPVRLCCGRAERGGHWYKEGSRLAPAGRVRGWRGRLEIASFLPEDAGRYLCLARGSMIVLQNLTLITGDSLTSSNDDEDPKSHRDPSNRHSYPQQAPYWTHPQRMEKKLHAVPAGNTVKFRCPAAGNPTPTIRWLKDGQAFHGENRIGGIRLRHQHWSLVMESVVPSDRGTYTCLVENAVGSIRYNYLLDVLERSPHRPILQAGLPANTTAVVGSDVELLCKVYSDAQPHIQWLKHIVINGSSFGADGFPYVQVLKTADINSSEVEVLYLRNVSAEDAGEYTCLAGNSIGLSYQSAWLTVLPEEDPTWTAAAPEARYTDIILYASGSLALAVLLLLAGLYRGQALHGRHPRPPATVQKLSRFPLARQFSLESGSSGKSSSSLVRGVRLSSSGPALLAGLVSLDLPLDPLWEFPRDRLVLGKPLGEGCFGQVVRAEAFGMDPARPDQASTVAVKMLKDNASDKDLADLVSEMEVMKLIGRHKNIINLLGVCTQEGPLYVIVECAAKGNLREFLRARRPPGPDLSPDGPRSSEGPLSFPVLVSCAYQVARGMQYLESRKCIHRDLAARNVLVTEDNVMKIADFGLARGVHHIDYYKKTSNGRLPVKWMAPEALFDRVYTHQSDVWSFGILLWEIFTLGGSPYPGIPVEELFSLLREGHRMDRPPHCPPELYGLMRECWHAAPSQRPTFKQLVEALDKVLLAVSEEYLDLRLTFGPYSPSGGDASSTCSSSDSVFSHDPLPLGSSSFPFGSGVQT

animal or person = format: functional; conditions: Homo sapiens, HCC, 336 h, time 14 day, read-out: TGI
Description: Antitumor activity against human HCC cells xenografted in athymic nu/nu mouse model assessed as tumor growth inhibition at 50 mg/kg measured after 14 days relative to control

[21] = biological target: Fibroblast growth factor receptor 3 (Homo sapiens, UniProt P22607); test: Inhibition of human recombinant FGFR3
NCI-H1581 [22] = test: Antitumor activity against human NCI-H1581 cells xenografted in athymic nu/nu mouse model assessed as tumor growth inhibition at 25 mg/kg measured after 14 days relative to control; conditions: NCI-H1581, 336 h, read-out: TGI
[23] = biological target: Fibroblast growth factor receptor 1 (Homo sapiens, UniProt P11362); test: Inhibition of human recombinant FGFR1
[24] = biological target: T2, Fibroblast growth factor receptor 2 (Homo sapiens, UniProt P21802); test: Inhibition of human recombinant FGFR2
T2 sequence (P21802 whole entry): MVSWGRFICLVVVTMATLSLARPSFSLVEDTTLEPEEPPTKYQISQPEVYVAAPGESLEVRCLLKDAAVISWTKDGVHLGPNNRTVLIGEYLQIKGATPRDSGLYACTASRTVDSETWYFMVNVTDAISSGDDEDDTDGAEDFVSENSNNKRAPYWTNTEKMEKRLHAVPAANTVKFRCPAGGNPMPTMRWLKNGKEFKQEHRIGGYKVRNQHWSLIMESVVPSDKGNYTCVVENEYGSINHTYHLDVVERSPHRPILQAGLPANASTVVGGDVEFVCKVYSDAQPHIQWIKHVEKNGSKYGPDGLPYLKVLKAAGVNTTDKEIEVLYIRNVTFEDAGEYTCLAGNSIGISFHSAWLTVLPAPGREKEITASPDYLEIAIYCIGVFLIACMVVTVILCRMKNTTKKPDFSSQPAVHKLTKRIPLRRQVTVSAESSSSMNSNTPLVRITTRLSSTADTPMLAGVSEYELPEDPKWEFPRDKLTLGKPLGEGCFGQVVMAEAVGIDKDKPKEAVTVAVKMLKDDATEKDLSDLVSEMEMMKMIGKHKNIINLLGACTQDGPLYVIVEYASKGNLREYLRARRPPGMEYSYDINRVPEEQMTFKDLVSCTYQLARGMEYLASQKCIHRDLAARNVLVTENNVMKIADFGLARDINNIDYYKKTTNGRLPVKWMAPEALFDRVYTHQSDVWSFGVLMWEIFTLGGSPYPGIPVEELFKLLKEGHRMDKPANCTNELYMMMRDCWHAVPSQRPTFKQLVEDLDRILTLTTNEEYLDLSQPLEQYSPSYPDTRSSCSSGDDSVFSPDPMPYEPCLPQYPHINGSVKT

[25] = Inhibition of 1R (unknown origin); parameters: species or system Homo sapiens
[26] = biological target: T2, Fibroblast growth factor receptor 2; test: Inhibition of human recombinant FGFR2 in the presence of ATP at 0.8 uM measured after 1 hr by fluorescence based assay
[27] = Clearance in rat at 1 mg/kg, iv; format: ADME, organism-based; conditions: in vivo
[28] = Oral bioavailability in rat at 3 mg/kg; format: ADME, organism-based; conditions: in vivo
[29] = Half life in rat at 3 mg/kg , po; format: ADME, organism-based; conditions: in vivo
[30] = AUC in rat at 3 mg/kg, po; format: ADME, organism-based; parameters: dose 3 mg/kg, route po; conditions: in vivo
[31] = Half life in rat at 1 mg/kg, iv; format: ADME, organism-based; conditions: in vivo
[32] = biological target: T1, Epidermal growth factor receptor; test: Inhibition of human recombinant His-tagged EGFR expressed in baculovirus using poly-Gluo-Tyr as a substrate measured after 24 hrs by western blot analysis
[33] = biological target: T3, Phosphatidylinositol 4,5-bisphosphate 3-kinase catalytic subunit delta isoform (Homo sapiens, UniProt O00329); test: Inhibition of PI3Kdelta (unknown origin) at 1 uM
T3 sequence (O00329 whole entry): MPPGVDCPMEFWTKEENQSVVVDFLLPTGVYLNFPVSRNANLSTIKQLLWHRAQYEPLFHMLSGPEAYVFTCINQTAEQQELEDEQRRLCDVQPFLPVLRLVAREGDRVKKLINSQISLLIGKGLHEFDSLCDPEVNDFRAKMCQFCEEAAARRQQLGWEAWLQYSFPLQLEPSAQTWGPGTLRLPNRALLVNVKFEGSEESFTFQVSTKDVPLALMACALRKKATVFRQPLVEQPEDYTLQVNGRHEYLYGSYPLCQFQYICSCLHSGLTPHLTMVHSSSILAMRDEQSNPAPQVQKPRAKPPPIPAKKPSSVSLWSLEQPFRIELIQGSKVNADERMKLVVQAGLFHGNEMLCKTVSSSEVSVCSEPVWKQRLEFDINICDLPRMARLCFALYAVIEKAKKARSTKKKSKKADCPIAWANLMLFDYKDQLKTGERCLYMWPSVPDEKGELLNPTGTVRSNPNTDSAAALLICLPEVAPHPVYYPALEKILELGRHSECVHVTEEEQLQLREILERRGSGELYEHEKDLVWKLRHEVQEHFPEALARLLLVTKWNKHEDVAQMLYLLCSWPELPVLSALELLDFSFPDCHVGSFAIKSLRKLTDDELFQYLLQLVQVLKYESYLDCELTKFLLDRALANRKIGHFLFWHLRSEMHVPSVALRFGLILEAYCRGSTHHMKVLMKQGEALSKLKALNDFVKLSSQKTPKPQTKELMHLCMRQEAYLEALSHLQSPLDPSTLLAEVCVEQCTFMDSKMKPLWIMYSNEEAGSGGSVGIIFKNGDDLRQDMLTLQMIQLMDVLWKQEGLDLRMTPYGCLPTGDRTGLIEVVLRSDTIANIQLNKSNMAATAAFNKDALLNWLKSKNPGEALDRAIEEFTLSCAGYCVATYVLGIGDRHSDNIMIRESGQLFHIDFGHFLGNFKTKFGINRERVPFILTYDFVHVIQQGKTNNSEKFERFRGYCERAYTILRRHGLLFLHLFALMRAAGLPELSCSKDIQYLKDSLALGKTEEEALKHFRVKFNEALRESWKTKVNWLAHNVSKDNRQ

SMILES: CN(C)CC(=O)N1CCC[C@@H](n2nc(-c3ccc(Oc4ccccc4)cc3)c3c(N)ncnc32)C1
- inhibition in vivo at 50 mg/kg (MV4-11): 88%

SMILES: CC(C)(C)n1nc(-c2ccc(NC(=O)c3cc(C(F)(F)F)ccc3F)cc2)c2c(N)ncnc21
- IC50 [1]: 4 nM

SMILES: Nc1ncnc2c1c(-c1cccc(OCc3ccccc3)c1)cn2[C@H]1C[C@@H](CN2CCC2)C1
- IC50 [2]: 2300 nM

SMILES: N#C/C(=C/C(=O)N1CCC[C@@H](n2nc(-c3cnc4[nH]ccc4c3)c3c(N)ncnc32)C1)C1CC1
- IC50 [3]: 2 nM
- IC50 [4]: 2.7 nM
- IC50 [5]: 13 nM

SMILES: Nc1ncnc2c1c(-c1ccc(Oc3ccccc3)nc1)nn2[C@@H]1CCCN(C(=O)CCl)C1
- IC50 [6]: 36 nM
- microsomal CLint (in vitro [7]): 82.5 µL/min/mg
- IC50 (JeKo-1): 400 nM
- IC50 (Maver1): 400 nM
- IC50 (Z-138): 400 nM
- half-life (in vitro [8]): 0.28 h
- IC50 [9]: 400 nM

SMILES: Nc1ncnc2c1c(-c1ccc(Cl)cc1)nn2-c1cccc(-c2cnnn2Cc2cccc(-c3ccccc3)c2)c1
- Ki [10]: 44 nM
- Kd [11]: 86 nM and 160 nM
- Kd [12]: 240 nM
- Kd [13]: 720 nM

SMILES: Cc1ccc2oc(-c3c4c(N)n[nH]c(=O)c4nn3-c3ccc(NC(=O)/C=C/CN(C)C)cc3)c(C)c2c1
- half-life [14]: 3.7 h
- inhibition in vivo at 10 mg/kg (NCI-H1581 [15]): 74.4%
- AUCt [16]: 281 ng·h/mL
- half-life [17]: 1.39 h
- AUCt [18]: 704 ng·h/mL
- IC50 (BaF3): < 0.3 nM
- inhibition in vivo at 50 mg/kg (NCI-H1581 [19]): 91.6%

SMILES: C=CC(=O)N1CC[C@H](c2nc(-c3cc4cc(Br)cc(OC)c4s3)c3c(N)nccn23)C1
- IC50 [20]: 0.5 nM
- inhibition in vivo at 50 mg/kg (animal or person): 97.8%
- IC50 [21]: < 0.3 nM
- inhibition in vivo at 25 mg/kg (NCI-H1581 [22]): 84.6%
- IC50 [23]: < 0.3 nM
- IC50 [24]: 1.1 nM

SMILES: Nc1ncnc2c1c(-c1cccc(OCc3ccccc3)c1)cn2[C@H]1C[C@H](CN2CCCC2)C1
- IC50 [25]: 2800 nM

SMILES: COCc1c(-c2cc3cc(C)cc(OC)c3s2)c2c(N)ncnn2c1CN1CCNC(=O)C1 [ROGARATINIB]
- IC50 [26]: < 1 nM
- clearance [27]: 7.5 mL/min/kg
- bioavailability [28]: 22%
- half-life [29]: 12 h
- AUC [30]: 0.78 kg·h/L
- half-life [31]: 12 h

SMILES: COc1cccc(-c2cn(-c3ccc(CCN4CCC(O)CC4)cc3)c3ncnc(N)c23)c1
- IC50 [32]: 150 nM

SMILES: Nc1ncnc2c1c(-c1cc(O)c(Br)c(F)c1)nn2C1CCc2ccccc2C1 (centres undefined)
- IC50 [33]: 0.27 nM
